Inconclusive results and toxic doses are left out. Cut-off read from the data, not from the text of the source: active = T/C of 150% or more; inactive = T/C below 125%.
Tested on: L1210 leukemia ip in BDF1 mice, survival T/C
Experiment: NCI In Vivo Anticancer Drug Screen. Data for tumor model L1210 Leukemia (intraperitoneal) in B6D2F1 (BDF1) mice
Details: endpoint: mean survival time, higher = longer survival
Outline: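 Read-out is survival time, reported as the treated-group measurement over the vehicle-control measurement.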

[1] = dose: 100.0 mg/kg/injection, schedule: Q04DX003 (ip), vehicle: Klucel (hydroxypropylcellulose) (HPC)
[2] = dose: 100.0 mg/kg/injection, schedule: Q04DX002 (ip), vehicle: Klucel (hydroxypropylcellulose) (HPC)
[3] = dose: 200.0 mg/kg/injection, schedule: Q04DX002 (ip), vehicle: Klucel (hydroxypropylcellulose) (HPC)
[4] = dose: 400.0 mg/kg/injection, schedule: Q04DX002 (ip), vehicle: Klucel (hydroxypropylcellulose) (HPC)
[5] = dose: 75.0 mg/kg/injection, schedule: Q01DX001 (ip), vehicle: saline
[6] = dose: 25.0 mg/kg/injection, schedule: Q01DX009 (ip), vehicle: saline
[7] = dose: 100.0 mg/kg/injection, schedule: Q01DX009 (ip), vehicle: Klucel (hydroxypropylcellulose) (HPC)
[8] = dose: 200.0 mg/kg/injection, schedule: Q01DX009 (ip), vehicle: Klucel (hydroxypropylcellulose) (HPC)
[9] = dose: 200.0 mg/kg/injection, schedule: Q04DX003 (ip), vehicle: Klucel (hydroxypropylcellulose) (HPC)
[10] = dose: 400.0 mg/kg/injection, schedule: Q01DX009 (ip), vehicle: Klucel (hydroxypropylcellulose) (HPC)
[11] = dose: 400.0 mg/kg/injection, schedule: Q04DX003 (ip), vehicle: Klucel (hydroxypropylcellulose) (HPC)
[12] = dose: 100.0 mg/kg/injection, schedule: Q01DX009 (ip), vehicle: saline with Tween-80
[13] = dose: 100.0 mg/kg/injection, schedule: Q04DX003 (ip), vehicle: saline with Tween-80
[14] = dose: 200.0 mg/kg/injection, schedule: Q01DX009 (ip), vehicle: saline with Tween-80
[15] = dose: 200.0 mg/kg/injection, schedule: Q04DX003 (ip), vehicle: saline with Tween-80
[16] = dose: 400.0 mg/kg/injection, schedule: Q01DX009 (ip), vehicle: saline with Tween-80
[17] = dose: 400.0 mg/kg/injection, schedule: Q04DX003 (ip), vehicle: saline with Tween-80

Measured: T/C

CC(=O)OC(OC(C)=O)c1ccc([N+](=O)[O-])o1
inactive: dose: 12.5 mg/kg/injection, schedule: Q04DX003 (ip), vehicle: Klucel (hydroxypropylcellulose) (HPC) 101 % of control | dose: 25.0 mg/kg/injection, schedule: Q04DX003 (ip), vehicle: Klucel (hydroxypropylcellulose) (HPC) 87 % of control | dose: 50.0 mg/kg/injection, schedule: Q04DX003 (ip), vehicle: Klucel (hydroxypropylcellulose) (HPC) 98 % of control | [1] 96 % of control

Cc1ccc(C)c(NC(=O)C2CCCCC2C(=O)O)c1 (stereo not drawn)
inactive: [2] 118 % of control | [3] 96 % of control | [4] 103 % of control

CCOP(=O)(OCC)O/N=C(/C#N)c1ccccc1
inactive: [5] 91 % of control

O=C1C=CC(=NBr)C=C1
inactive: dose: 12.5 mg/kg/injection, schedule: Q01DX009 (ip), vehicle: Klucel (hydroxypropylcellulose) (HPC) 89 % of control | dose: 25.0 mg/kg/injection, schedule: Q01DX009 (ip), vehicle: Klucel (hydroxypropylcellulose) (HPC) 92 % of control | dose: 50.0 mg/kg/injection, schedule: Q01DX009 (ip), vehicle: Klucel (hydroxypropylcellulose) (HPC) 89 % of control

CC(CCC(=O)O)Cc1ccccc1 (stereo not drawn)
inactive: [6] 101 % of control | dose: 50.0 mg/kg/injection, schedule: Q01DX009 (ip), vehicle: saline 101 % of control | dose: 100.0 mg/kg/injection, schedule: Q01DX009 (ip), vehicle: saline 86 % of control

Cc1cc(C)c(NC(=O)Nc2ccc(Cl)cc2)c(C)c1
inactive: [7] 92 % of control | [1] 100 % of control | [8] 92 % of control | [9] 97 % of control | [10] 96 % of control | [11] 97 % of control

COc1ccc(C)cc1NC(=O)Nc1cc([N+](=O)[O-])ccc1F
inactive: [2] 87 % of control | [3] 104 % of control | [4] 108 % of control

CCO/C(C)=C(/C#N)c1ccc(Cl)cc1
inactive: dose: 12.5 mg/kg/injection, schedule: Q01DX009 (ip), vehicle: gum acacia 104 % of control | dose: 25.0 mg/kg/injection, schedule: Q01DX009 (ip), vehicle: gum acacia 104 % of control | dose: 50.0 mg/kg/injection, schedule: Q01DX009 (ip), vehicle: gum acacia 102 % of control

O=C(Sc1ccccc1)n1nc(Cl)c2ccc([N+](=O)[O-])cc21
inactive: dose: 100.0 mg/kg/injection, schedule: Q01DX001 (ip), vehicle: saline 94 % of control | dose: 200.0 mg/kg/injection, schedule: Q01DX001 (ip), vehicle: saline 94 % of control | dose: 400.0 mg/kg/injection, schedule: Q01DX001 (ip), vehicle: saline 90 % of control

CCOC(=O)/C(C#N)=C(\C)CCc1ccccc1
inactive: [5] 104 % of control | dose: 150.0 mg/kg/injection, schedule: Q01DX001 (ip), vehicle: saline 101 % of control | dose: 300.0 mg/kg/injection, schedule: Q01DX001 (ip), vehicle: saline 101 % of control

O=C(COc1cc(Cl)c(Cl)cc1Cl)OCCOc1cc(Cl)c(Cl)cc1Cl
inactive: dose: 7.5 mg/kg/injection, schedule: Q01DX001 (ip), vehicle: saline 97 % of control | dose: 15.0 mg/kg/injection, schedule: Q01DX001 (ip), vehicle: saline 95 % of control | dose: 30.0 mg/kg/injection, schedule: Q01DX001 (ip), vehicle: saline 93 % of control

CC(=O)CCC(C)(C)[N+](=O)[O-]
inactive: dose: 75.0 mg/kg/injection, schedule: Q01DX009 (ip), vehicle: acetone 97 % of control | dose: 150.0 mg/kg/injection, schedule: Q01DX009 (ip), vehicle: acetone 94 % of control | dose: 300.0 mg/kg/injection, schedule: Q01DX009 (ip), vehicle: acetone 95 % of control

COc1ccc2c(c1)CCC1=C2CCC2C(=O)OC(=O)C12C (stereo not drawn)
inactive: [7] 98 % of control | [1] 90 % of control | [8] 95 % of control | [9] 98 % of control | [10] 101 % of control | [11] 97 % of control

CN(C)N=Nc1ccc(C#N)cc1
inactive: dose: 50.0 mg/kg/injection, schedule: Q01DX001 (ip), vehicle: saline with Tween-80 105 % of control | dose: 50.0 mg/kg/injection, schedule: Q01DX009 (ip), vehicle: saline with Tween-80 96 % of control | dose: 50.0 mg/kg/injection, schedule: Q04DX003 (ip), vehicle: saline with Tween-80 101 % of control | dose: 100.0 mg/kg/injection, schedule: Q01DX001 (ip), vehicle: saline with Tween-80 106 % of control | [12] 91 % of control | [13] 105 % of control | dose: 200.0 mg/kg/injection, schedule: Q01DX001 (ip), vehicle: saline with Tween-80 118 % of control | [14] 100 % of control | [15] 97 % of control | dose: 400.0 mg/kg/injection, schedule: Q01DX001 (ip), vehicle: saline with Tween-80 122 % of control | [16] 102 % of control | [17] 108 % of control

CO/C=C1\Cc2cc(OC)c(OC)cc2C1=O
inactive: [12] 102 % of control | [14] 104 % of control | [16] 94 % of control

O=C(Nc1ccccc1Cl)OCC#CCOC(=O)Nc1ccccc1Cl
inactive: [13] 102 % of control | [15] 93 % of control | [17] 91 % of control

CC/C(=N\N=C(N)N)c1ccc(NC(N)=S)cc1
inactive: dose: 5.0 mg/kg/injection, schedule: Q01DX009 (ip), vehicle: saline 100 % of control | dose: 10.0 mg/kg/injection, schedule: Q01DX009 (ip), vehicle: saline 105 % of control | dose: 20.0 mg/kg/injection, schedule: Q01DX009 (ip), vehicle: saline 107 % of control | [6] 107 % of control | dose: 40.0 mg/kg/injection, schedule: Q01DX009 (ip), vehicle: saline 103 % of control | dose: 80.0 mg/kg/injection, schedule: Q01DX009 (ip), vehicle: saline 117 % of control
